# According to patent publication US20180320217A1, “METHODS FOR SAMPLING AND MEASURING ORAL LAVAGE PROTEINS” (The Procter & Gamble Company, priority 2017, published 2018):
# Several values for one entry are separate records, joined by “and”; a condition that tells them apart may be missing. Equal values may be shown once.
# What was measured:
# [1] = test system: Malate dehydrogenase and diaphorase; test: Formation of formazan dyes: Malate dehydrogenase, diaphorase and malate (TABLE 10); format: biochemical, pig heart
# oral lavage [2] = test: Formation of formazan dyes: oral lavage, malate and diaphorase (TABLE 12); format: biochemical, human
# [3] = Formation of formazan dyes: control buffer, malate and 1-Methoxy PMS (TABLE 22); format: biochemical
# oral lavage [4] = test: Formation of formazan dyes: oral lavage and 1-Methoxy PMS, absence of malate (TABLE 19); format: biochemical, human
# diaphorase [5] = test: Formation of formazan dyes: NADH, diaphorase and malate (TABLE 8); format: biochemical, Clostridium kluyveri
# [6] = Formation of formazan dyes: NADH and 1-methoxy PMS, absence of malate (TABLE 15); format: biochemical
# diaphorase [7] = test: Formation of formazan dyes: NADH and diaphorase, absence of malate (TABLE 7); format: biochemical, Clostridium kluyveri
# oral lavage [8] = test: Formation of formazan dyes: oral lavage and diaphorase, not malate (TABLE 11); format: biochemical, human
# oral lavage [9] = test: Formation of formazan dyes: oral lavage, malate and 1-Methoxy PMS (TABLE 20); format: biochemical, human
# [10] = test system: Malate dehydrogenase and diaphorase; test: Formation of formazan dyes: Malate dehydrogenase and diaphorase, absence of malate (TABLE 9); format: biochemical, pig heart
# Malate dehydrogenase = molecular target: T1, Malate dehydrogenase (Sus scrofa, UniProt P00346); test: Formation of formazan dyes: Malate dehydrogenase and 1-Methoxy PMS, absence of malate (TABLE 17); format: biochemical, pig heart; parameters: L-malate dehydrogenase (pig heart); purchased Sigma-Aldrich 10127248001 / 10127914001
# T1 sequence (P00346 25-338): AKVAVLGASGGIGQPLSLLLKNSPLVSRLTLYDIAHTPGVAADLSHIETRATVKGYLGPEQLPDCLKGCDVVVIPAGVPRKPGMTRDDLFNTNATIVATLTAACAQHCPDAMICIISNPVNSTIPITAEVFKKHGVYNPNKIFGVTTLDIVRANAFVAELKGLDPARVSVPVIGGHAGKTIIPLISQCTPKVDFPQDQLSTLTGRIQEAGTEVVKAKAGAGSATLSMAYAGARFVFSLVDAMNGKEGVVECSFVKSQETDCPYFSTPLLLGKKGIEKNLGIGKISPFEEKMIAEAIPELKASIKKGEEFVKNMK
# [11] = Formation of formazan dyes: control buffer and 1-Methoxy PMS, absence of malate (TABLE 21); format: biochemical
compound,measurement,setting,value
"COc1cc(-c2ccc(-n3nc(-c4ccccc4)n[n+]3-c3ccc([N+](=O)[O-])cc3)c(OC)c2)ccc1-n1nc(-c2ccccc2)n[n+]1-c1ccc([N+](=O)[O-])cc1 [Nitro-TB, 3,3′-[3,3′-Dimethoxy-(1,1′-biphenyl)-4,4′-diyl]-bis[2-(4-nitrophenyl)-5-phenyl-2H-tetrazolium chloride]","Formation of formazan dyes, absorbance, Means 0 h",[1],0.56
same,"Formation of formazan dyes, absorbance, Means 1 h",[1],0.88
same,"Formation of formazan dyes, absorbance, Means 2 h",[1],1.08
same,"Formation of formazan dyes, absorbance, Means 3 h",[1],1.23
same,"Formation of formazan dyes, absorbance, Means 4 h",[1],1.46
same,"Formation of formazan dyes, absorbance, Means 6 h",[1],1.73
same,"Formation of formazan dyes, absorbance, Means 8 h",[1],1.95
same,"Formation of formazan dyes, absorbance, Means 10 h",[1],2.16
same,"Formation of formazan dyes, absorbance, Means 12 h",[1],2.35
same,conversion to reduced formazan dyes,[1],converted to reduced formazan dyes in a time-dependent manner
same,"Formation of formazan dyes, absorbance, Means 0 h",oral lavage [2],0.52
same,"Formation of formazan dyes, absorbance, Means 1 h",oral lavage [2],0.75
same,"Formation of formazan dyes, absorbance, Means 2 h",oral lavage [2],0.80
same,"Formation of formazan dyes, absorbance, Means 3 h",oral lavage [2],0.75
same,"Formation of formazan dyes, absorbance, Means 4 h",oral lavage [2],0.88
same,"Formation of formazan dyes, absorbance, Means 6 h",oral lavage [2],1.00
same,"Formation of formazan dyes, absorbance, Means 8 h",oral lavage [2],1.09
same,"Formation of formazan dyes, absorbance, Means 10 h",oral lavage [2],1.20
same,"Formation of formazan dyes, absorbance, Means 12 h",oral lavage [2],1.30
same,Means absorbance 0 h,[3],0.16
same,Means absorbance 1 h,[3],0.16
same,Means absorbance 2 h,[3],0.17
same,Means absorbance 3 h,[3],0.19
same,Means absorbance 4 h,[3],0.19
same,Means absorbance 6 h,[3],0.24
same,Means absorbance 8 h,[3],0.29
same,Means absorbance 10 h,[3],0.18
same,Means absorbance 12 h,[3],0.23
same,"Absorbance, formation of formazan dyes (Means)",oral lavage [4],0.52 and 0.58 and 0.61 and 0.63 and 0.60 and 0.68 and 0.73 and 0.82
same,"Formation of formazan dyes, absorbance, Means 0 h",diaphorase [5],1.03
same,"Formation of formazan dyes, absorbance, Means 1 h",diaphorase [5],1.15
same,"Formation of formazan dyes, absorbance, Means 2 h",diaphorase [5],1.16
same,"Formation of formazan dyes, absorbance, Means 3 h",diaphorase [5],1.17
same,"Formation of formazan dyes, absorbance, Means 4 h",diaphorase [5],1.22
same,"Formation of formazan dyes, absorbance, Means 6 h",diaphorase [5],1.27
same,"Formation of formazan dyes, absorbance, Means 8 h",diaphorase [5],1.33
same,"Formation of formazan dyes, absorbance, Means 10 h",diaphorase [5],1.37
same,"Formation of formazan dyes, absorbance, Means 12 h",diaphorase [5],1.42
same,formation of formazan dyes / precipitates with 1-methoxy PMS and NADH,[6],formed precipitates
same,"Formation of formazan dyes, absorbance, Means 0 h",diaphorase [7],1.49
same,"Formation of formazan dyes, absorbance, Means 1 h",diaphorase [7],1.71
same,"Formation of formazan dyes, absorbance, Means 2 h",diaphorase [7],1.73
same,"Formation of formazan dyes, absorbance, Means 3 h",diaphorase [7],1.71
same,"Formation of formazan dyes, absorbance, Means 4 h",diaphorase [7],1.74
same,"Formation of formazan dyes, absorbance, Means 6 h",diaphorase [7],1.86
same,"Formation of formazan dyes, absorbance, Means 8 h",diaphorase [7],1.83
same,"Formation of formazan dyes, absorbance, Means 10 h",diaphorase [7],1.85
same,"Formation of formazan dyes, absorbance, Means 12 h",diaphorase [7],1.82
same,"Formation of formazan dyes, absorbance, Means 0 h",oral lavage [8],0.56
same,"Formation of formazan dyes, absorbance, Means 1 h",oral lavage [8],0.79
same,"Formation of formazan dyes, absorbance, Means 2 h",oral lavage [8],0.85
same,"Formation of formazan dyes, absorbance, Means 3 h",oral lavage [8],0.81
same,"Formation of formazan dyes, absorbance, Means 4 h",oral lavage [8],0.88
same,"Formation of formazan dyes, absorbance, Means 6 h",oral lavage [8],0.87
same,"Formation of formazan dyes, absorbance, Means 8 h",oral lavage [8],0.88
same,"Formation of formazan dyes, absorbance, Means 10 h",oral lavage [8],0.86
same,"Formation of formazan dyes, absorbance, Means 12 h",oral lavage [8],0.87
same,reduction to formazan dyes by pooled oral lavage,oral lavage [8],changed to formazan dyes in a significant amount
same,"Absorbance, formation of formazan dyes (Means)",oral lavage [9],0.35 and 0.37 and 0.40 and 0.43 and 0.29 and 0.30 and 0.31
same,"Formation of formazan dyes, absorbance, Means 0 h",[10],0.15
same,"Formation of formazan dyes, absorbance, Means 1 h",[10],0.20
same,"Formation of formazan dyes, absorbance, Means 2 h",[10],0.23
same,"Formation of formazan dyes, absorbance, Means 3 h",[10],0.25
same,"Formation of formazan dyes, absorbance, Means 4 h",[10],0.36
same,"Formation of formazan dyes, absorbance, Means 6 h",[10],0.39
same,"Formation of formazan dyes, absorbance, Means 8 h",[10],0.40
same,"Formation of formazan dyes, absorbance, Means 10 h",[10],0.41
same,"Formation of formazan dyes, absorbance, Means 12 h",[10],0.42
same,reduction of tetrazolium dye in the absence of substrate malate,[10],remained largely in oxidized forms
same,"Absorbance, formation of formazan dyes (Means)",Malate dehydrogenase,0.31 and 0.40 and 0.39 and 0.35 and 0.36 and 0.32 and 0.41
same,"Absorbance, formation of formazan dyes (Means)",[11],0.33 and 0.41 and 0.42 and 0.44 and 0.39 and 0.45 and 0.43
